Earlier results in patent publication US11559486B2, “Ready-to-use formulation for Vincristine Sulfate Liposome Injection” (Spectrum Pharmaceuticals, Inc., priority 2015, dated 2023).

Conditions: 0.45% aqueous sodium chloride and Ringers admixtures at 25° C. to 37° C.

SMILES | degradation in chloride-containing admixtures
CC[C@]1(O)C[C@H]2CN(CCc3c([nH]c4ccccc34)[C@@](C(=O)OC)(c3cc4c(cc3OC)N(C=O)[C@H]3[C@@](O)(C(=O)OC)[C@H](OC(C)=O)[C@]5(CC)C=CCN6CC[C@]43[C@@H]65)C2)C1 [vincristine, (3aR,3a^1R,4R,5S,5aR,10bR)-methyl-4-acetoxy-3a-ethyl-9-((5S,7S,9S)-5-ethyl-5-hydroxy-9-(methoxycarbonyl)-2,4,5,6,7,8,9,10-octahydro-1H-3,7-methano[1]azacycloundecino[5,4-b]indol-9-yl)-6-formyl-5-hydroxy-8-methoxy-3a,3a1,4,5,5a,6,11,12-octahydro-1H-indolizino[8,1-cd]carbazole-5-carboxylate] | degrade rapidly
COc1cccc2c1C(=O)c1c(O)c3c(c(O)c1C2=O)C[C@@](O)(C(=O)CO)C[C@@H]3O[C@H]1C[C@H](N)[C@H](O)[C@H](C)O1 [Doxorubicin] | degrade rapidly
